pEC50: −log10 of the molar value. One block for each compound: values may come before it.
Assays:
PAR1 = molecular target: T1, PAR1 (Homo sapiens, UniProt P25116); conditions: ACS patients, phase III; cited from earlier work
T1 construct: host or cells: ACS patients (clinical trial)
T1 sequence (P25116 22-425): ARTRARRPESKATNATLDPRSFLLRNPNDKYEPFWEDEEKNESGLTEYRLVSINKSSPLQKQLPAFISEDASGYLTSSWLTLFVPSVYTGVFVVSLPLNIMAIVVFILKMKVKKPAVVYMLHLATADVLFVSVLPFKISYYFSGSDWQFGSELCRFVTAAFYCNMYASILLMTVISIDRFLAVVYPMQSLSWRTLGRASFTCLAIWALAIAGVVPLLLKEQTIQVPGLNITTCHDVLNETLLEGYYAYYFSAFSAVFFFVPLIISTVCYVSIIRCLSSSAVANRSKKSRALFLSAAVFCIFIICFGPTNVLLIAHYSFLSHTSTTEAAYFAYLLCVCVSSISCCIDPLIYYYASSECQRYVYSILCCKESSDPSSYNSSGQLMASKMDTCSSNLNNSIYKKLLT

[1] = molecular target: T2, protease-activated receptor type 4 (PAR4) (Homo sapiens, UniProt Q96RI0); conditions: quoted from the abstract; cited from earlier work
T2 sequence (Q96RI0 18-385): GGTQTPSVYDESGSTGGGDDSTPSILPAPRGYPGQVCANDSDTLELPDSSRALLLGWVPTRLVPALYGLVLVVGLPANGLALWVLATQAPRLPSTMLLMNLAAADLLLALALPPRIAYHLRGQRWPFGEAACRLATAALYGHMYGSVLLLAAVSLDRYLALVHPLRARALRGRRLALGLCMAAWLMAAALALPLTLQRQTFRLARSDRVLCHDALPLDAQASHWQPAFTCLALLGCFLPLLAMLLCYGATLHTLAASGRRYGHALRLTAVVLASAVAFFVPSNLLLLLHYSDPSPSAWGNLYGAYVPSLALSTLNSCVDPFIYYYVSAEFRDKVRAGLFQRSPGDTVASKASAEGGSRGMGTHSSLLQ

PAR4 = molecular target: T3, PAR4 (Homo sapiens, UniProt Q96RI0); assay: washed platelet aggregation assay (PAR4 agonist peptides); format: cell-based; conditions: washed platelets
T3 construct: PRP was isolated by centrifugation at 170 g for 14 minutes and platelets were further pelleted; from tissue; host or cells: human washed platelets
T3 sequence (Q96RI0 18-385): T2 sequence (Q96RI0 18-385)
Procedure: Human blood was collected in ACD (85 mM tri-sodium citrate, 78 mM citric acid, 110 mM D-glucose, pH 4.4) at a ratio of 1.4 ml per 10 ml blood. PRP was isolated by centrifugation at 170 g for 14 minutes and platelets were further pelleted by centrifugation at 1300 g for 6 minutes. Platelets were washed once with 10 ml ACD containing 1 mg/ml bovine serum albumin Platelets were resuspended at ˜2.5×10^8/ml in Tyrode's Buffer (137 mM NaCl, 2 mM KCl, 1.0 mM MgCl2, 1 mM CaCl2, 5 mM glucose, 20 mM HEPES pH 7.4).

Structure (SMILES): CCOC(=O)N[C@@H]1CC[C@@H]2[C@@H](C1)C[C@H]1C(=O)O[C@H](C)[C@H]1[C@H]2/C=C/c1ccc(-c2cccc(F)c2)cn1 [vorapaxar]
cardiovascular events (PAR1): did not significantly reduce
risk of major bleeding (PAR1): significantly increased

Structure (SMILES): CCOC(=O)c1ccc(-c2nn(Cc3ccccc3)c3ccccc23)cc1 [ethyl 4-(1-benzyl-1H-indazol-3-yl)benzoate]
inhibition of PAR4-dependent platelet activation [1]: selective and potent inhibitor

pEC50 (PAR4): 4.92
Structure (SMILES): C[C@H](N)C(=O)N[C@@H](Cc1ccc(O)cc1)C(=O)N1CCC[C@H]1C(=O)NCC(=O)N[C@@H](CCCCN)C(=O)N[C@@H](Cc1ccccc1)C(=O)O [AYPGKF]

— patent US9598419B1, “Imidazotriazine and imidazodiazine compounds” (Universite de Montreal, priority 2014, dated 2017)
